How the values were obtained:
Recombinant human TDO = Recombinant human TDO (Homo sapiens, UniProt P48775); assay: hTDO biochemical coupled assay; details: 330 μM L-tryptophan, coupled with kynurenine formamidase
How it was run: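 Recombinant human TDO with 330 μM L-tryptophan in 50 mM KPO4 pH 7.0 containing EGTA, EDTA, Triton X100, ascorbate, methylene blue, catalase and kynurenine formamidase (KynB), 17 min at room temperature. Stopped with Ehrlich's reagent, 5 min, then kynurenine fluorescence read (Ex475, Em530).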

[1] = molecular target: T1, TDO (A172 human glioblastoma cells) (Homo sapiens, UniProt P48775); assay: A172 Kynurenine cell based assay; details: 500 μM L-tryptophan, 48 hours, kynurenine by Erhlich's reagent
T1 construct: This assay utilised cancer cells which expressed either TDO or IDO; endogenous in cells; host or cells: A172 human glioblastoma cells
How it was run: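 Kynurenine released into the supernatant was quantified by absorbance at 490 nm after 5 min with Erhlich's reagent. A172 cells were seeded at 30,000/well and exposed to test compound for 48 hours at 37° C. in phenol red-free RPMI containing 500 μM L-tryptophan, 10% FCS and 2 mM L-glutamine.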

Recombinant human IDO = Recombinant human IDO (Homo sapiens, UniProt P14902); assay: hIDO biochemical coupled assay; details: 45 μM L-tryptophan, coupled with kynurenine formamidase
How it was run: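 Recombinant human IDO incubated in 50 mM KPO4 (pH 7.0), 0.5 mM EGTA, 0.5 mM EDTA, 0.05% Triton X100, 20 mM ascorbate, 10 μM methylene blue, 500 U/ml catalase and 50 μg/ml kynurenine formamidase. N-formylkynurenine converted to kynurenine, quantified by fluorescence after Ehrlich's reagent.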

[2] = molecular target: T2, IDO (SKOV3 human ovarian adenocarcinoma cells, IFN-γ induced) (Homo sapiens, UniProt P14902); assay: SKOV3 Kynurenine cell based assay; details: IDO induced by 500 ng/ml IFN-γ, 500 μM L-tryptophan, 48 hours
T2 construct: IDO expression was induced in the SKOV3 cells by the addition of 500 ng/ml IFN-γ; endogenous in cells; host or cells: SKOV3 human ovarian adenocarcinoma cells, induced with IFN-γ
How it was run: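 Kynurenine in the supernatant, detected by Ehrlich's reagent, served as read-out after 48 h at 37° C with or without test compound. SKOV3 cells (40,000/well) were grown in phenol red-free RPMI, 10% FCS, 2 mM L-glutamine, 500 μM L-tryptophan, with 500 ng/ml IFN-γ to induce IDO.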

T2 sequence (P14902 whole entry): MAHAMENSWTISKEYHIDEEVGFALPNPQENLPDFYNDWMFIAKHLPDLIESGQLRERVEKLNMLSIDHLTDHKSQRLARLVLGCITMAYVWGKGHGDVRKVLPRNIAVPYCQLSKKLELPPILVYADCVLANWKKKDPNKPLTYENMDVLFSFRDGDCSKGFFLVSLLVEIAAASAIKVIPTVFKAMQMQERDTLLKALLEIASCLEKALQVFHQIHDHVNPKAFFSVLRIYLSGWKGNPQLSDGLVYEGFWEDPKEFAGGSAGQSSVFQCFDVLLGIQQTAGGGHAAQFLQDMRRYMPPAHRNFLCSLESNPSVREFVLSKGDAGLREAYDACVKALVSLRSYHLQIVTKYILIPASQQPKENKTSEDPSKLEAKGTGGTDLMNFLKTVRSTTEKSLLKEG
Recombinant human IDO, sequence (P14902 whole entry): as above
T1 sequence (P48775 whole entry): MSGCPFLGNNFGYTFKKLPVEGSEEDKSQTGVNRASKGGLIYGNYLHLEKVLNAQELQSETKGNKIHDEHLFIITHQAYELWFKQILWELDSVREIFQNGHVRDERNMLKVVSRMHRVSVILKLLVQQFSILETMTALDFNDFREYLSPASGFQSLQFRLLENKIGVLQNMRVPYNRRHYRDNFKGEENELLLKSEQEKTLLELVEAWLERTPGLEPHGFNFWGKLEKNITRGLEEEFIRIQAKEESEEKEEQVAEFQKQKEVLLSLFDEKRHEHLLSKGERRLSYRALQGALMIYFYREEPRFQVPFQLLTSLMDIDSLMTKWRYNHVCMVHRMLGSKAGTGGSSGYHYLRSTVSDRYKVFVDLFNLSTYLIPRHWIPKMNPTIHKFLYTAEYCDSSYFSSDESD
Recombinant human TDO, sequence (P48775 whole entry): as above

| SMILES | hTDO biochemical assay pIC50 (Recombinant human TDO) | A172 Kynurenine cell based assay pIC50 [1] | hIDO biocehmical assay pIC50 (Recombinant human IDO) | SKOV3 Kynurenine cell based assay pIC50 [2] |
| --- | --- | --- | --- | --- |
| Cc1ccc2[nH]cc(C3CCN(S(=O)(=O)c4cc(C)c(Cl)cc4Cl)CC3)c2c1 [Compound 31] | +− (+− = pIC50 <4.00) | +− (+− = pIC50 <4.00) | +− (+− = pIC50 <4.00) | + (+ = pIC50 4.00-4.99) |
| COc1cccc2c(C3=CCN(C(C)=O)CC3)c[nH]c12 [Compound 88] | ++ (++ = pIC50 5.00-5.99) | + (+ = pIC50 4.00-4.99) | +− (+− = pIC50 <4.00) | +− (+− = pIC50 <4.00) |
| CCCCS(=O)(=O)N1CC=C(c2c[nH]c3cc(F)ccc23)CC1 [Compound 18] | + (+ = pIC50 4.00-4.99) | ++ (++ = pIC50 5.00-5.99) | +− (+− = pIC50 <4.00) | + (+ = pIC50 4.00-4.99) |

Source: US9931347B2, “Pharmaceutical compound” (IOmet Pharma Ltd., priority 2013, dated 2018)
